Measurements from publication PMC7901646, “Pyrrolo[2′,3′:3,4]cyclohepta[1,2-d][1,2]oxazoles, a New Class of Antimitotic Agents Active against Multiple Malignant Cell Types” (Journal of Medicinal Chemistry, 2020).
pIC50: −log10 of the molar value.

Assays:
Type in all cases: cell-based
[1] = test system: NCI-60 panel of human cancer cell lines; test: NCI in vitro human tumor cell line screening, full panel; settings: full NCI panel; for GI50: Homo sapiens, five concentrations 10^–4–10^–8 M, read-out: GI50 (concentration that inhibits 50% net cell growth), range over panel; for MG_MID (mean graph midpoint): arithmetic mean for all tested cancer cell lines
Excerpt: (§1) on the full NCI-60 panel comprising cancer cell lines derived from nine human cancer cell types (leukemia, non-small-cell lung, colon, central nervous system, melanoma, ovarian, renal, prostate, and breast).[50]

IGROV1 = test: NCI-60 screen; settings: Homo sapiens, IGROV-1; Ovarian Cancer
Method: as §1, with “All the synthesized compounds 51–76 were tested at a 10^–5 M concentration for their antitumor activity on the” for “on the”

K-562 = test: NCI-60 screen; settings: Homo sapiens, K562; Leukemia
Method: as §1, with “All the synthesized compounds 51–76 were tested at a 10^–5 M concentration for their antitumor activity on the” for “on the”

M14 = test: NCI-60 screen; settings: Homo sapiens, Melanoma
Method: as §1, with “All the synthesized compounds 51–76 were tested at a 10^–5 M concentration for their antitumor activity on the” for “on the”

PC-3 = test: NCI-60 screen; settings: Homo sapiens, Prostate Cancer
Method: as §1, with “All the synthesized compounds 51–76 were tested at a 10^–5 M concentration for their antitumor activity on the” for “on the”

MDA-MB-231/ATCC = test: NCI-60 screen; settings: Homo sapiens, Breast Cancer
Method: as §1, with “All the synthesized compounds 51–76 were tested at a 10^–5 M concentration for their antitumor activity on the” for “on the”

DU-145 = test: NCI-60 screen; settings: Homo sapiens, Prostate Cancer
Method: as §1, with “All the synthesized compounds 51–76 were tested at a 10^–5 M concentration for their antitumor activity on the” for “on the”

ACHN = test: NCI-60 screen; settings: Homo sapiens, Renal Cancer
Method: as §1, with “All the synthesized compounds 51–76 were tested at a 10^–5 M concentration for their antitumor activity on the” for “on the”

SK-OV-3 = test: NCI-60 screen; settings: Homo sapiens, Ovarian Cancer
Method: as §1, with “All the synthesized compounds 51–76 were tested at a 10^–5 M concentration for their antitumor activity on the” for “on the”

RPMI-8226 = test: NCI-60 screen; settings: Homo sapiens, Leukemia
Method: as §1, with “All the synthesized compounds 51–76 were tested at a 10^–5 M concentration for their antitumor activity on the” for “on the”

HT29 = test: NCI-60 screen; settings: Homo sapiens, HT-29; Colon Cancer
Method: as §1, with “All the synthesized compounds 51–76 were tested at a 10^–5 M concentration for their antitumor activity on the” for “on the”

MDA-MB-435 = test: NCI-60 screen; settings: Homo sapiens, Melanoma
Method: as §1, with “All the synthesized compounds 51–76 were tested at a 10^–5 M concentration for their antitumor activity on the” for “on the”

SF-268 = test: NCI-60 screen; settings: Homo sapiens, CNS Cancer
Method: as §1, with “All the synthesized compounds 51–76 were tested at a 10^–5 M concentration for their antitumor activity on the” for “on the”

NCI-H226 = test: NCI-60 screen; settings: Homo sapiens, Non-Small-Cell Lung Cancer
Method: as §1, with “All the synthesized compounds 51–76 were tested at a 10^–5 M concentration for their antitumor activity on the” for “on the”

SW-620 = test: NCI-60 screen; settings: Homo sapiens, Colon Cancer
Method: as §1, with “All the synthesized compounds 51–76 were tested at a 10^–5 M concentration for their antitumor activity on the” for “on the”

CAKI-1 = test: NCI-60 screen; settings: Homo sapiens, Renal Cancer
Method: as §1, with “All the synthesized compounds 51–76 were tested at a 10^–5 M concentration for their antitumor activity on the” for “on the”

NCI-H460 = test: NCI-60 screen; settings: Homo sapiens, Non-Small-Cell Lung Cancer
Method: as §1, with “All the synthesized compounds 51–76 were tested at a 10^–5 M concentration for their antitumor activity on the” for “on the”

A498 = test: NCI-60 screen; settings: Homo sapiens, Renal Cancer
Method: as §1, with “All the synthesized compounds 51–76 were tested at a 10^–5 M concentration for their antitumor activity on the” for “on the”

HCT-15 = test: NCI-60 screen; settings: Homo sapiens, Colon Cancer
Method: as §1, with “All the synthesized compounds 51–76 were tested at a 10^–5 M concentration for their antitumor activity on the” for “on the”

CCRF-CEM = test: NCI-60 screen; settings: Homo sapiens, Leukemia
Method: as §1, with “All the synthesized compounds 51–76 were tested at a 10^–5 M concentration for their antitumor activity on the” for “on the”

COLO 205 = test: NCI-60 screen; settings: Homo sapiens, Colon Cancer
Method: as §1, with “All the synthesized compounds 51–76 were tested at a 10^–5 M concentration for their antitumor activity on the” for “on the”

HL-60(TB) = test: NCI-60 screen; settings: Homo sapiens, Leukemia
Method: as §1, with “All the synthesized compounds 51–76 were tested at a 10^–5 M concentration for their antitumor activity on the” for “on the”

NCI-H522 = test: NCI-60 screen; settings: Homo sapiens, Non-Small-Cell Lung Cancer
Excerpt: as §1

KM12 = test: NCI-60 screen; settings: Homo sapiens, Colon Cancer
Excerpt: as §1

OVCAR-3 = test: NCI-60 screen; settings: Homo sapiens, Ovarian Cancer
Excerpt: as §1

LOX IMVI = test: NCI-60 screen; settings: Homo sapiens, Melanoma
Excerpt: as §1

[2] = test system: VL51 idelalisib-resistant; test: MTT cell proliferation, lymphoma; settings: Homo sapiens, 72 h, of untreated cells, read-out: Proliferating cells (%)
Summary of the method: (§2)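 Lymphoma lines in RPMI-1640 with 10% FBS seeded at 1 × 10^5 cells/mL and treated with 1 μM, or in triplicate with serial dilutions over 40–10 000 nM, for 72 h at 37 °C, 5% CO2. Viability by MTT (4 h), SDS lysis, absorbance at 570 nm with medium-only blanks.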

HBL1 (ABC DLBCL) = test: MTT cell proliferation, lymphoma; settings: Homo sapiens, 72 h; for activity at 1 µM: of untreated cells, read-out: Proliferating cells (%); for pIC50: MTT
Summary of the method: as §2

SU-DHL-10 (GCB DLBCL) = test: MTT cell proliferation, lymphoma; settings: Homo sapiens, SU-DHL10, 72 h; for activity at 1 µM: of untreated cells, read-out: Proliferating cells (%); for pIC50: MTT
Summary of the method: as §2

VL51 (MZL) = test: MTT cell proliferation, lymphoma; settings: Homo sapiens, 72 h; for activity at 1 µM: of untreated cells, read-out: Proliferating cells (%); for pIC50: MTT
Summary of the method: as §2

VL51 ibrutinib-resistant = test: MTT cell proliferation, lymphoma; settings: Homo sapiens, 72 h, of untreated cells, read-out: Proliferating cells (%)
Summary of the method: as §2

MINO (MCL) = test: MTT cell proliferation, lymphoma; settings: Homo sapiens, 72 h; for activity at 1 µM: of untreated cells, read-out: Proliferating cells (%); for pIC50: MTT
Summary of the method: as §2

Row | Compound | GI50 [1] | MG_MID (mean graph midpoint) [1] | GI50 (IGROV1) | GI50 (K-562) | GI50 (M14) | GI50 (PC-3) | GI50 (MDA-MB-231/ATCC) | GI50 (DU-145) | GI50 (ACHN) | GI50 (SK-OV-3) | GI50 (RPMI-8226) | GI50 (HT29) | GI50 (MDA-MB-435) | GI50 (SF-268) | GI50 (NCI-H226) | GI50 (SW-620) | GI50 (CAKI-1) | GI50 (NCI-H460) | GI50 (A498) | GI50 (HCT-15) | further results
1 | CCOC(=O)c1cc2c(n1Cc1cccc(OC)c1)-c1oncc1CCC2 [Compound 63, Ethyl 9-(3-Methoxybenzyl)-4,5,6,9-tetrahydropyrrolo[2′,3′:3,4]cyclohepta[1,2-d][1,2]oxazole-8-carboxylate] | 150 to 18700 nM | 1.45 µM | 1160 nM | 390 nM | 540 nM | 2350 nM | 1840 nM | 2180 nM | 3400 nM | 2830 nM | 1890 nM | 360 nM | 150 nM | 6710 nM | 21000 nM | 480 nM | 2310 nM | 3530 nM | 440 nM | 450 nM | GI50 (CCRF-CEM): 2170 nM; GI50 (COLO 205): 580 nM; GI50 (HL-60(TB)): 530 nM; GI50 (NCI-H522): 230 nM; GI50 (KM12): 460 nM; GI50 (OVCAR-3): 300 nM; GI50 (LOX IMVI): 1750 nM; activity at 1 µM [2]: 62.3%; activity at 1 µM (HBL1 (ABC DLBCL)): 117%; pIC50 (HBL1 (ABC DLBCL)): < 5.30; activity at 1 µM (SU-DHL-10 (GCB DLBCL)): 51.5%; pIC50 (SU-DHL-10 (GCB DLBCL)): 5.52; activity at 1 µM (VL51 (MZL)): 66.7%; pIC50 (VL51 (MZL)): 5.64; activity at 1 µM (VL51 ibrutinib-resistant): 64.9%; activity at 1 µM (MINO (MCL)): 86.3%; pIC50 (MINO (MCL)): 5.59
2 | CCOC(=O)c1c(Cl)c2c(n1Cc1ccccc1)-c1oncc1CCC2 [Compound 70, Ethyl 7-Chloro-9-benzyl-4,5,6,9-tetrahydropyrrolo[2′,3′:3,4]cyclohepta[1,2-d][1,2]oxazole-8-carboxylate] | 1290 to 5890 nM | 7.08 µM | 4390 nM | 3680 nM | 3780 nM | 3160 nM | 3510 nM | > 100000 nM | 5890 nM | > 100000 nM | 3270 nM | 2950 nM | 1400 nM | > 100000 nM | > 100000 nM | 3810 nM | 3510 nM | 3620 nM | 4380 nM | 3390 nM | GI50 (CCRF-CEM): 2210 nM; GI50 (COLO 205): 3530 nM; GI50 (HL-60(TB)): 3320 nM; GI50 (NCI-H522): 1290 nM; GI50 (KM12): 3700 nM; GI50 (OVCAR-3): 3130 nM; GI50 (LOX IMVI): 5260 nM; activity at 1 µM [2]: 111%; activity at 1 µM (HBL1 (ABC DLBCL)): 104%; pIC50 (HBL1 (ABC DLBCL)): < 5.00; activity at 1 µM (SU-DHL-10 (GCB DLBCL)): 69.5%; pIC50 (SU-DHL-10 (GCB DLBCL)): 5.05; activity at 1 µM (VL51 (MZL)): 108%; pIC50 (VL51 (MZL)): < 5.00; activity at 1 µM (VL51 ibrutinib-resistant): 104%; activity at 1 µM (MINO (MCL)): 104%; pIC50 (MINO (MCL)): < 5.00
